The values below come from US12185723B2, “Herbicidally active 3-phenylisoxazoline-5-carboxamides of s-containing cyclopentenylcarboxylic esters” (Bayer Aktiengesellschaft, priority 2019, dated 2025).

Holding throughout (type): in vivo
The test system of one experiment is Lolium rigidum. Briefly: Post-emergence herbicidal action against LOLRI. The settings on record: visual rating about 3 weeks after treatment. The essentials: (§1)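 Post-emergence application onto green parts at the one-leaf stage, 2 to 3 weeks after sowing in sandy loam. Spray carried 0.5% additive at a water rate of 600 l/ha. Percent activity assessed by eye at about 3 weeks, where 100% means plants died and 0% matches controls.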

In another experiment the test system is Hordeum murinum. Briefly: Post-emergence herbicidal action against HORMU. The settings on record: 80 g a.i./ha. The procedure:
(§2) Post-Emergence Herbicidal Action Against Harmful Plants and Crop Plant Compatibility Seeds of monocotyledonous and dicotyledonous weeds and crop plants are placed in sandy loam in plastic or wood-fibre pots, covered with soil and cultivated in a greenhouse under controlled growth conditions. 2 to 3 weeks after sowing, the test plants are treated at the one-leaf stage. The compounds of the invention, formulated in the form of wettable powders (WP) or as emulsion concentrates (EC), are then sprayed onto the green parts of the plants as aqueous suspension or emulsion with addition of 0.5% additive at a water application rate of 600 l/ha (converted). After the test plants have been kept in the greenhouse under optimum growth conditions for about 3 weeks, the activity of the preparations is rated visually in comparison to untreated controls. For example, 100% activity=the plants have died, 0% activity=like control plants. [table]

The subject of another experiment is Veronica persica. Nature of the experiment: Post-emergence herbicidal action against VERPE. The method, boiled down: as §1
The next experiment concerns Setaria viridis. Nature of the experiment: Post-emergence herbicidal action against SETVI. The settings on record: visual rating about 3 weeks after treatment. The essentials: as §1
Another experiment relates to Alopecurus myosuroides. Briefly: Post-emergence herbicidal action against ALOMY. The settings on record: visual rating about 3 weeks after treatment. The essentials: as §1
A further experiment concerns Echinochloa crus-galli. Briefly: Post-emergence herbicidal action against ECHCG. The settings on record: visual rating about 3 weeks after treatment. The essentials: as §1
A further experiment relates to DIGSA. Nature of the experiment: Post-emergence herbicidal action against DIGSA. The settings on record: visual rating about 3 weeks after treatment. The essentials: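 Greenhouse-grown plants sprayed at one-leaf stage (2–3 weeks after sowing) with WP or EC formulations as aqueous suspension/emulsion plus 0.5% additive, 600 l/ha water. Activity rated visually about 3 weeks later versus untreated controls, 100% = plants dead, 0% = like controls.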

The test system of the next experiment is Stellaria media. Nature of the experiment: Post-emergence herbicidal action against STEME. Here is the method: as §2
A further experiment relates to Pharbitis purpurea. Briefly: Post-emergence herbicidal action against PHBPU. The method, boiled down:
as §1

For another experiment, the system named is Avena fatua. Nature of the experiment: Post-emergence herbicidal action against AVEFA. The settings on record: visual rating about 3 weeks after treatment. The essentials: as §1
A further experiment deals with Viola tricolor. Nature of the experiment: Post-emergence herbicidal action against VIOTR. The settings on record: 20 g a.i./ha. The procedure: as §2
For the next experiment, the system named is Amaranthus retroflexus. Briefly: Post-emergence herbicidal action against AMARE. The settings on record: 20 g a.i./ha. The method, boiled down: as §1
The test system of a further experiment is Matricaria inodora. Nature of the experiment: Post-emergence herbicidal action against MATIN. The settings on record: 20 g a.i./ha. Here is the method: as §2
For another experiment, the system named is Abutilon theophrasti. Nature of the experiment: Post-emergence herbicidal action against ABUTH. The settings on record: 20 g a.i./ha, visual rating about 3 weeks after treatment. The essentials: as §1
In another experiment the test system is Polygonum convolvulus. Briefly: Post-emergence herbicidal action against POLCO. The settings on record: 20 g a.i./ha. The method, boiled down:
as §1

For `C=CC1(C(=O)NC2C=CC(C(=O)OCCSC)C2)CC(c2ccccc2)=NO1` (mixture of isomers) [Example I-48], the results for the “Herbicidal action against [%] LOLRI” value with Lolium rigidum (20 g a.i./ha) and in the experiment with Lolium rigidum (80 g a.i./ha) were 80% and 90%, respectively. The “Herbicidal action against [%] HORMU” value with Hordeum murinum is reported as 80%. The “Herbicidal action against [%] VERPE” value turned out to be 80% in the experiment with Veronica persica (20 g a.i./ha) and 90% in the experiment on Veronica persica (80 g a.i./ha). In addition, the “Herbicidal action against [%] SETVI” value with Setaria viridis (20 g a.i./ha) and with Setaria viridis (80 g a.i./ha) was 80% each time. In the experiment with Alopecurus myosuroides (80 g a.i./ha), the “Herbicidal action against [%] ALOMY” value amounted to 100%. For the same compound, the “Herbicidal action against [%] ECHCG” value with Echinochloa crus-galli (80 g a.i./ha) was found to be 80%. In addition, the “Herbicidal action against [%] DIGSA” value in the experiment on DIGSA (20 g a.i./ha) was found to be 80%; in the experiment with DIGSA (80 g a.i./ha), 90%. In addition, the “Herbicidal action against [%] STEME” value in the experiment with Stellaria media (20 g a.i./ha) and in the experiment on Stellaria media (80 g a.i./ha) was 90% in each case. The “Herbicidal action against [%] PHBPU” value in the experiment on Pharbitis purpurea (80 g a.i./ha) came out at 80%. Moreover, the “Herbicidal action against [%] AVEFA” value with Avena fatua (80 g a.i./ha) worked out at 90%. Moreover, the “Herbicidal action against [%] VIOTR” value in the experiment with Viola tricolor is reported as 90%.

In the case of `CC(C)CSCCOC(=O)C1C=CC(NC(=O)C2(C)CC(c3cc(F)cc(F)c3)=NO2)C1` (stereo not shown) [Example I-08], the “Herbicidal action against [%] LOLRI” value in the experiment with Lolium rigidum (20 g a.i./ha) came out at 90%. Also, in the experiment on Amaranthus retroflexus, the “Herbicidal action against [%] AMARE” value came out at 90%. Besides, the “Herbicidal action against [%] VERPE” value with Veronica persica (20 g a.i./ha) is 80%. Besides, in the experiment on Setaria viridis (20 g a.i./ha), the “Herbicidal action against [%] SETVI” value is listed as 90%. Besides, the “Herbicidal action against [%] ALOMY” value in the experiment on Alopecurus myosuroides (20 g a.i./ha) is recorded as 100%. In addition, in the experiment on Matricaria inodora, the “Herbicidal action against [%] MATIN” value worked out at 80%. In addition, the “Herbicidal action against [%] ECHCG” value in the experiment on Echinochloa crus-galli (20 g a.i./ha) worked out at 90%. In addition, in the experiment on DIGSA (20 g a.i./ha), the “Herbicidal action against [%] DIGSA” value is 90%. In the experiment on Abutilon theophrasti, the “Herbicidal action against [%] ABUTH” value worked out at 90%. The “Herbicidal action against [%] POLCO” value in the experiment on Polygonum convolvulus turned out to be 90%. The “Herbicidal action against [%] PHBPU” value with Pharbitis purpurea (20 g a.i./ha) stood at 90%. The “Herbicidal action against [%] AVEFA” value in the experiment with Avena fatua (20 g a.i./ha) turned out to be 90%.

With `CC(C)SCCOC(=O)C1C=CC(NC(=O)C2(C)CC(c3cc(F)cc(F)c3)=NO2)C1` (stereo not shown) [Example I-10], in the experiment on Lolium rigidum (20 g a.i./ha), the “Herbicidal action against [%] LOLRI” value came out at 100%. For the same compound, the “Herbicidal action against [%] AMARE” value in the experiment with Amaranthus retroflexus is 90%. Further, in the experiment on Veronica persica (20 g a.i./ha), the “Herbicidal action against [%] VERPE” value worked out at 90%. Moreover, the “Herbicidal action against [%] SETVI” value with Setaria viridis (20 g a.i./ha) is 90%. The “Herbicidal action against [%] ALOMY” value in the experiment on Alopecurus myosuroides (20 g a.i./ha) was determined as 100%. Further, the “Herbicidal action against [%] MATIN” value in the experiment on Matricaria inodora was found to be 80%. In the experiment on Echinochloa crus-galli (20 g a.i./ha), the “Herbicidal action against [%] ECHCG” value turned out to be 90%. Besides, the “Herbicidal action against [%] DIGSA” value in the experiment on DIGSA (20 g a.i./ha) came to 90%. Also, the “Herbicidal action against [%] ABUTH” value with Abutilon theophrasti came out at 90%. In addition, the “Herbicidal action against [%] POLCO” value in the experiment with Polygonum convolvulus worked out at 90%. In addition, the “Herbicidal action against [%] PHBPU” value in the experiment with Pharbitis purpurea (20 g a.i./ha) was found to be 80%. For the same compound, in the experiment with Avena fatua (20 g a.i./ha), the “Herbicidal action against [%] AVEFA” value was determined as 90%.

On to `C=CCSCCOC(=O)C1C=CC(NC(=O)C2(C)CC(c3cc(F)cc(F)c3)=NO2)C1` (stereo not shown) [Example I-11], for which the “Herbicidal action against [%] LOLRI” value with Lolium rigidum (20 g a.i./ha) was determined as 100%. Further, the “Herbicidal action against [%] AMARE” value in the experiment with Amaranthus retroflexus was 90%. Also, in the experiment on Veronica persica (20 g a.i./ha), the “Herbicidal action against [%] VERPE” value is recorded as 90%. Further, in the experiment with Setaria viridis (20 g a.i./ha), the “Herbicidal action against [%] SETVI” value is reported as 90%. Further, the “Herbicidal action against [%] ALOMY” value in the experiment with Alopecurus myosuroides (20 g a.i./ha) worked out at 100%. Also, the “Herbicidal action against [%] MATIN” value with Matricaria inodora was determined as 80%. For the same compound, in the experiment on Echinochloa crus-galli (20 g a.i./ha), the “Herbicidal action against [%] ECHCG” value was determined as 90%. In addition, the “Herbicidal action against [%] DIGSA” value in the experiment on DIGSA (20 g a.i./ha) was 90%. The “Herbicidal action against [%] ABUTH” value in the experiment with Abutilon theophrasti amounted to 90%. In the experiment on Polygonum convolvulus, the “Herbicidal action against [%] POLCO” value is given as 90%. Also, the “Herbicidal action against [%] PHBPU” value with Pharbitis purpurea (20 g a.i./ha) is reported as 80%. In the experiment with Avena fatua (20 g a.i./ha), the “Herbicidal action against [%] AVEFA” value is 90%.

In the case of `COC1(C(=O)NC2C=CC(C(=O)OCCSC)C2)CC(c2cc(F)cc(F)c2)=NO1` (stereo not shown) [Example I-19], the “Herbicidal action against [%] LOLRI” value with Lolium rigidum (20 g a.i./ha) worked out at 90%. In addition, the “Herbicidal action against [%] AMARE” value in the experiment with Amaranthus retroflexus is reported as 80%. The “Herbicidal action against [%] VERPE” value with Veronica persica (20 g a.i./ha) was 90%. Besides, the “Herbicidal action against [%] SETVI” value with Setaria viridis (20 g a.i./ha) stood at 90%. For the same compound, the “Herbicidal action against [%] ALOMY” value in the experiment on Alopecurus myosuroides (20 g a.i./ha) was determined as 80%. Moreover, the “Herbicidal action against [%] MATIN” value in the experiment on Matricaria inodora is listed as 80%. In addition, in the experiment on Echinochloa crus-galli (20 g a.i./ha), the “Herbicidal action against [%] ECHCG” value turned out to be 90%. The “Herbicidal action against [%] DIGSA” value in the experiment with DIGSA (20 g a.i./ha) was found to be 90%. Besides, the “Herbicidal action against [%] ABUTH” value in the experiment on Abutilon theophrasti worked out at 80%. Further, the “Herbicidal action against [%] POLCO” value in the experiment on Polygonum convolvulus worked out at 80%. Further, in the experiment on Pharbitis purpurea (20 g a.i./ha), the “Herbicidal action against [%] PHBPU” value came to 80%. In addition, the “Herbicidal action against [%] AVEFA” value in the experiment with Avena fatua (20 g a.i./ha) turned out to be 90%.
